Data as given in US20040068762A1, “Transgenic non-human mammals expressing a reporter nucleic acid under the regulation of androgen response elements” (priority 2002, published 2004).
Like-named read-outs stand apart in the source and are kept apart here.

Test system: androgen receptor

| SMILES | inhibition of the testosterone effect (luciferase expression) (bone, Casodex 50 mg/kg p.o. with testosterone 2 mg/kg s.c.) [%] | luciferase response in kidney (inhibition of testosterone effect) (kidney, Casodex 50 mg/kg p.o. with testosterone 2 mg/kg s.c.) | inhibition of the testosterone effect (luciferase expression) (prostate-seminal vesicles, Casodex 50 mg/kg p.o. with testosterone 2 mg/kg s.c.) [%] | inhibition of the testosterone effect (luciferase expression) (quadriceps, Casodex 50 mg/kg p.o. with testosterone 2 mg/kg s.c.) [%] | luciferase induction over untreated (bone, testosterone 2 mg/kg s.c.) [fold] | luciferase response in kidney (testosterone induction) (kidney, testosterone 2 mg/kg s.c.) | luciferase induction over untreated (prostate-seminal vesicles, testosterone 2 mg/kg s.c.) [fold] | luciferase induction over untreated (quadriceps, testosterone 2 mg/kg s.c.) [fold] |
| --- | --- | --- | --- | --- | --- | --- | --- | --- |
| CC(O)(CS(=O)(=O)c1ccc(F)cc1)C(=O)Nc1ccc(C#N)c(C(F)(F)F)c1 (centres unmarked) [bicalutamide] | 86 | No response | 90 | 92 |  |  |  |  |
| C[C@]12CC[C@H]3[C@@H](CCC4=CC(=O)CC[C@@]43C)[C@@H]1CC[C@@H]2O [testosterone] |  |  |  |  | 3.3 | No response | 5.6 | 5.8 |
